System: 885512-296-R-J2-PDC complex spheroid viability
Assay: Anticancer human tumor 885512-296-R-J2-PDC patient-derived breast carcinoma cell line growth inhibition [GQUAD]
Conditions: for IC50: curve of first compound; for viability, T/C: stronger effect = lower value; active = viability on the fitted dose curve at most 10% of control; inactive = the rest
Source text: DNA G-quadruplex Stabilizer Agents in Combinations in Complex Spheroids
A high-throughput screen of multi-cell type tumor spheroids was designed to identify active combinations of DNA G-quadruplex stabilizer agents and targeted small molecules. Complex spheroids include a stromal component modeled by human endothelial cells (HUVEC) and fibroblasts modeled by human mesenchymal stem cells (MSCs). The concentration ranges selected for each drug and investigational agent were based upon clinically achievable concentrations if the clinical Cmax of the agent was known.
Compounds. The drugs and investigational agents: pidnarulex (CX-5461; NSC782164), APTO-253 (NSC789042), BRACO-19 (NSC847499), peposertib (NSC802822), ceralasertib (NSC780249), elimusertib (NSC800525), camonsertib (NSC841442), AZD-1390 (NSC803789), olaparib (NSC753686), talazoparib (NSC767125), ART-558 (NSC835418), sotorasib (NSC818433), MRTX-1133 (NSC836407), SN-38 (NSC673596), topotecan (NSC609699), etoposide (NSC141540), doxorubicin (NSC123127), gemcitabine (NSC613327), 5-fluorouracil (NSC19893), paclitaxel (NSC125973), vemurafenib (NSC761431), panobinostat (NSC761190), R-306465 (JNJ-16241199; NSC773264), adavosertib (NSC754352), TP-3654 (NSC805149), carboplatin (NSC241240), KSQ-4279 (NSC840948), and staurosporine (NSC755774) were obtained from the National Cancer Institute (NCI) Developmental Therapeutics Program Chemical Repository (34). The FDA-approved anticancer drug set is available from the NCI Developmental Therapeutics Program. […] The stock solutions were prepared in dimethyl sulfoxide (DMSO, Sigma-Aldrich, St. Louis, MO, cat. D2650) at 800-fold the tested concentration and stored at -70 degrees C prior to their use. All drugs and investigational agents were tested over a range starting from a high concentration at or near the clinical Cmax and decreasing in half-log increments. If the clinical Cmax for an agent had not been determined, the highest concentration tested was 10 microM.
2.3 Cell Culture. All cells were maintained in an incubator at 37 degrees C and 5% CO2 with 95% humidity. The PDC lines were cultured according to standard operating procedures established by the NCI PDMR. All PDCs were thawed and cultured in Matrigel-coated flasks prepared with a working solution of 1X Ham's F-12 nutrient mix, without supplementation (Invitrogen, cat. 11765054), 100 U/mL penicillin-streptomycin (Invitrogen, cat. 15140122), and 2.5% Matrigel (Corning Inc., cat. 354248) for the first three passages. The 857933-349-R-J2-PDC line was cultured in 6C/Colon 1B media, which includes advanced DMEM/F-12 (Thermo Fisher Scientific, cat. 12634028), 10 mM HEPES (Thermo Fisher Scientific, cat. 15630080), 1X GlutaMAX supplement (Thermo Fisher Scientific, cat. 35050061), 0.1 mg/mL primocin (InvivoGen, cat. ant-pm-2), 10% defined fetal bovine serum, heat inactivated (HyClone Laboratories Inc., cat. SH30070.03HI), 50% L-WRN conditioned media (ATCC, cat. CRL-3276), 1.25 mM N-Acetyl-L-cysteine (Sigma-Aldrich, cat. A9165), 10 mM nicotinamide (Sigma-Aldrich, cat. N0636), 1X B-27 supplement (Thermo Fisher Scientific, cat. 17504044), 1X N-2 supplement (Thermo Fisher Scientific, cat. 17502048), 10 microM Y-27632 dihydrochloride (Tocris Bioscience, cat. 1254), and 50 ng/mL human EGF recombinant protein (Thermo Fisher Scientific, cat. PHG0311). The 485176-168-R4-J1-PDC line was cultured in Panc media, which includes all 6C/Colon 1B media components plus 100 ng/mL human FGF-10 (Thermo Fisher Scientific, cat. 100-26), 500 nM SB-431542 (Selleckchem, cat. S1067), and gastrin (Tocris, cat. 3006).
[…]

[1] = second compound 0.0316 µM, first compound 0.0316 µM
[2] = second compound 0.0316 µM, first compound 0.316 µM
[3] = second compound 0.1 µM, first compound 0.0316 µM
[4] = second compound 0.1 µM, first compound 0.316 µM
[5] = second compound 0.316 µM, first compound 0.0316 µM
[6] = second compound 0.316 µM, first compound 0.316 µM
[7] = second compound 1 µM, first compound 0.0316 µM
[8] = second compound 1 µM, first compound 0.316 µM
[9] = second compound 3.16 µM, first compound 0.0316 µM
[10] = second compound 3.16 µM, first compound 0.316 µM
[11] = second compound 10 µM, first compound 0.0316 µM
[12] = second compound 10 µM, first compound 0.316 µM
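Also: spheroids exposed to the compounds for one week.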
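For viability, T/C in this document: percent of tumor spheroid viability relative to DMSO vehicle control wells.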

CC1COCCN1c1cc(C2(O)CC3CCC(C2)O3)c2cnn(-c3ccn[nH]3)c2n1 (centres undefined) + CN(C)c1ccc(Nc2c3ccc(NC(=O)CCN4CCCC4)cc3nc3cc(NC(=O)CCN4CCCC4)ccc23)cc1
active: viability, T/C (second compound 0.0316 µM, first compound 0.1 µM) 5.25% | viability, T/C [2] 3.07% | viability, T/C (second compound 0.0316 µM, first compound 1 µM) 5.38% | viability, T/C (second compound 0.0316 µM, first compound 3.16 µM) 6.51% | viability, T/C (second compound 0.0316 µM, first compound 10 µM) 7.85% | viability, T/C (second compound 0.1 µM, first compound 0.1 µM) 5.86% | viability, T/C [4] 3.33% | viability, T/C (second compound 0.1 µM, first compound 1 µM) 4.56% | viability, T/C (second compound 0.1 µM, first compound 3.16 µM) 7.53% | viability, T/C (second compound 0.1 µM, first compound 10 µM) 8.91% | viability, T/C (second compound 0.316 µM, first compound 0.1 µM) 6.08% | viability, T/C [6] 5.15% | viability, T/C (second compound 0.316 µM, first compound 1 µM) 4.96% | viability, T/C (second compound 0.316 µM, first compound 3.16 µM) 6.17% | viability, T/C (second compound 0.316 µM, first compound 10 µM) 8.92% | viability, T/C (second compound 1 µM, first compound 0.1 µM) 3.86% | viability, T/C [8] 4.06% | viability, T/C (second compound 1 µM, first compound 1 µM) 4.6% | viability, T/C (second compound 1 µM, first compound 3.16 µM) 6.32% | viability, T/C (second compound 1 µM, first compound 10 µM) 7.75% | viability, T/C (second compound 3.16 µM, first compound 0.1 µM) 5.47% | viability, T/C [10] 3.21% | viability, T/C (second compound 3.16 µM, first compound 1 µM) 4.64% | viability, T/C (second compound 3.16 µM, first compound 3.16 µM) 6.84% | viability, T/C (second compound 3.16 µM, first compound 10 µM) 6.31% | viability, T/C (second compound 10 µM, first compound 0.1 µM) 4.76% | viability, T/C [12] 4.43% | viability, T/C (second compound 10 µM, first compound 1 µM) 2.68% | viability, T/C (second compound 10 µM, first compound 3.16 µM) 3.3% | viability, T/C (second compound 10 µM, first compound 10 µM) 1.22%
< 31.6 nM: IC50 (second compound 0.0316 µM) | IC50 (second compound 0.1 µM) | IC50 (second compound 0.316 µM) | IC50 (second compound 1 µM) | IC50 (second compound 3.16 µM) | IC50 (second compound 10 µM)
inactive: viability, T/C [1] 25.4% | viability, T/C [3] 30% | viability, T/C [5] 22.3% | viability, T/C [7] 29.2% | viability, T/C [9] 18.8% | viability, T/C [11] 12.7%

CCc1c2c(nc3ccc(O)cc13)-c1cc3c(c(=O)n1C2)COC(=O)[C@]3(O)CC + Cc1[nH]c2ccc(F)cc2c1-c1nc2c3cccnc3c3ncccc3c2[nH]1
active: viability, T/C (second compound 0.0316 µM, first compound 0.00999 µM) 6.06% | viability, T/C [1] 3.24% | viability, T/C (second compound 0.0316 µM, first compound 0.0999 µM) 2.09% | viability, T/C [2] 1.42% | viability, T/C (second compound 0.1 µM, first compound 0.00999 µM) 5.76% | viability, T/C [3] 2.48% | viability, T/C (second compound 0.1 µM, first compound 0.0999 µM) 1.88% | viability, T/C [4] 1.48% | viability, T/C (second compound 0.316 µM, first compound 0.00316 µM) 9.08% | viability, T/C (second compound 0.316 µM, first compound 0.00999 µM) 4.66% | viability, T/C [5] 2.27% | viability, T/C (second compound 0.316 µM, first compound 0.0999 µM) 1.56% | viability, T/C [6] 1.34% | viability, T/C (second compound 1 µM, first compound 0.00316 µM) 8.76% | viability, T/C (second compound 1 µM, first compound 0.00999 µM) 2.75% | viability, T/C [7] 1.69% | viability, T/C (second compound 1 µM, first compound 0.0999 µM) 1.68% | viability, T/C [8] 1.43% | viability, T/C (second compound 3.16 µM, first compound 0.000999 µM) 3.36% | viability, T/C (second compound 3.16 µM, first compound 0.00316 µM) 2.2% | viability, T/C (second compound 3.16 µM, first compound 0.00999 µM) 2.07% | viability, T/C [9] 1.56% | viability, T/C (second compound 3.16 µM, first compound 0.0999 µM) 1.71% | viability, T/C [10] 2.07% | viability, T/C (second compound 10 µM, first compound 0.000999 µM) 1.69% | viability, T/C (second compound 10 µM, first compound 0.00316 µM) 1.34% | viability, T/C (second compound 10 µM, first compound 0.00999 µM) 1.31% | viability, T/C [11] 1.08% | viability, T/C (second compound 10 µM, first compound 0.0999 µM) 0.89% | viability, T/C [12] 1.57%
inactive: viability, T/C (second compound 0.0316 µM, first compound 0.000999 µM) 26.3% | viability, T/C (second compound 0.0316 µM, first compound 0.00316 µM) 9.48% | viability, T/C (second compound 0.1 µM, first compound 0.000999 µM) 25.8% | viability, T/C (second compound 0.1 µM, first compound 0.00316 µM) 9.37% | viability, T/C (second compound 0.316 µM, first compound 0.000999 µM) 28.2% | viability, T/C (second compound 1 µM, first compound 0.000999 µM) 26%
< 0.999 nM: IC50 (second compound 0.0316 µM) | IC50 (second compound 0.1 µM) | IC50 (second compound 0.316 µM) | IC50 (second compound 1 µM) | IC50 (second compound 3.16 µM) | IC50 (second compound 10 µM)
